Test results published in ChEMBL document CHEMBL1149391, “SAR and mode of action of novel non-nucleoside inhibitors of hepatitis C NS5b RNA polymerase” (J Med Chem, 2006).
The source made the active and inactive calls. The rule behind the calls is not given here.

Legend:
ECV-304 = assay: Cytotoxicity in E304 cells; assay type: functional, cell-based; details: Homo sapiens
HFF = assay: Cytotoxicity in HFF cells; assay type: functional, cell-based; details: Homo sapiens
[1] = biological target: RNA-directed RNA polymerase (Hepacivirus hominis, UniProt O39930); assay: Inhibitory activity against HCV delta 21 NS5b RNA polymerase
Genome polyprotein = Genome polyprotein (Bovine viral diarrhea virus (strain CP7) (BVDV) (Mucosal diseasevirus), UniProt Q96662); assay: Inhibitory activity against BVDV NS5b RNA polymerase; set-up: species or system Bovine viral diarrhea virus 1
[2] = biological target: T1, Avian myoblastosis virus polyprotein II (Avian myeloblastosis virus, UniProt Q86831); assay: Inhibitory activity against AMV Reverse transcriptase
T1 sequence (Q86831 whole entry): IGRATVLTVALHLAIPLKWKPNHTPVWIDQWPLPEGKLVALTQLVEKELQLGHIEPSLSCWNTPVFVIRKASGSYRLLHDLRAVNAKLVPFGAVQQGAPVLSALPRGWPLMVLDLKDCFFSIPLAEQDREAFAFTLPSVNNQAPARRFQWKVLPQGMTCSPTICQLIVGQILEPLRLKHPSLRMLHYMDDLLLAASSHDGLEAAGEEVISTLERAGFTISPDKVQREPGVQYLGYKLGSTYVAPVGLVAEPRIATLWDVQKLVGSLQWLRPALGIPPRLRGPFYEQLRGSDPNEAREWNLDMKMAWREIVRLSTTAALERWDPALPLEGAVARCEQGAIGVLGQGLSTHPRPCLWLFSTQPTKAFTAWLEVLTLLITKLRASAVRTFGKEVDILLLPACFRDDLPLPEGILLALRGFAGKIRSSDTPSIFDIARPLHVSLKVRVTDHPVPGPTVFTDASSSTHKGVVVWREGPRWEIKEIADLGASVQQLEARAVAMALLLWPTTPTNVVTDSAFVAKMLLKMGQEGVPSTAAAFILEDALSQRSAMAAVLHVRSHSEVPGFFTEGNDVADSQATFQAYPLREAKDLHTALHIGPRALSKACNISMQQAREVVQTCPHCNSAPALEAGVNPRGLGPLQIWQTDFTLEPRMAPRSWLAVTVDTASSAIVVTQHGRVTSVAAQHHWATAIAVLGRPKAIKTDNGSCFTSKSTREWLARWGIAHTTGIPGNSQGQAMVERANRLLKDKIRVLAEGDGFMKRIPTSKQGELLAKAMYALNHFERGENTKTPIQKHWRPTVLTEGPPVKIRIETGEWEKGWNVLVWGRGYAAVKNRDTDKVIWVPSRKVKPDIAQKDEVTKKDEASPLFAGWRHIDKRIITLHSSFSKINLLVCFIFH

[3] = biological target: Cathepsin B (Homo sapiens) (UniProt P07858); assay: Inhibition of Cathepsin B
[4] = Inhibition of Calpain
Homo sapiens = species on record: Homo sapiens; assay: Inhibition of human Caspase (caspase 1, caspase 3, caspase 6, caspase 7, caspase 8)
Tubulin (Homo sapiens) = Tubulin (Homo sapiens) (UniProt P68371+Q9H4B7+P0DPH7+P68366+Q13509+Q71U36+P04350+Q3ZCM7+P07437+P68363+Q9BQE3+Q6PEY2+Q13885+Q9BVA1+Q9BUF5); assay: Effect on tubulin polymerization; assay type: functional
[5] = biological target: Aldo-keto reductase family 1 member B1 (Homo sapiens) (UniProt P15121); assay: Inhibition of aldose reductase
[6] = Plasma clearance in rat at 0.16 mg/kg, iv; assay type: ADME, organism-based; set-up: dose 0.16 mg/kg, route intravenous; details: Sprague-Dawley
[7] = Volume of distribution in rat at 0.16 mg/kg, iv; assay type: ADME, organism-based; set-up: dose 0.16 mg/kg, route intravenous; details: Sprague-Dawley, in vivo, read-out: Vdss
[8] = Half life in rat at 0.16 mg/kg, iv; assay type: ADME, organism-based; set-up: dose 0.16 mg/kg, route intravenous; details: Sprague-Dawley, in vivo
[9] = Cmax in rat at 4.1 mg/kg, po; assay type: ADME, organism-based; set-up: dose 4.1 mg/kg, route oral; details: Sprague-Dawley, in vivo
[10] = Tmax in rat at 4.1 mg/kg, po; assay type: ADME, organism-based; set-up: dose 4.1 mg/kg, route oral; details: Sprague-Dawley, in vivo
[11] = AUC(0-8h) in rat at 4.1 mg/kg, po; assay type: ADME, organism-based; set-up: time < 8 hr, dose 4.1 mg/kg, route oral; details: Sprague-Dawley, plasma
[12] = Plasma clearance in rat at 0.86 mg/kg, iv; assay type: ADME, organism-based; set-up: dose 0.86 mg/kg, route intravenous; details: Sprague-Dawley
[13] = Volume of distribution in rat at 0.86 mg/kg, iv; assay type: ADME, organism-based; set-up: dose 0.86 mg/kg, route intravenous; details: Sprague-Dawley, in vivo, read-out: Vdss
[14] = Half life in rat at 0.86 mg/kg, iv; assay type: ADME, organism-based; set-up: dose 0.86 mg/kg, route intravenous; details: Sprague-Dawley, in vivo
[15] = Cmax in rat at 4.3 mg/kg, po; assay type: ADME, organism-based; set-up: dose 4.3 mg/kg, route oral; details: Sprague-Dawley, in vivo
[16] = Tmax in rat at 4.3 mg/kg, po; assay type: ADME, organism-based; set-up: dose 4.3 mg/kg, route oral; details: Sprague-Dawley, in vivo
[17] = AUC(0-8h) in rat at 4.3 mg/kg, po; assay type: ADME, organism-based; set-up: time < 8 hr, dose 4.3 mg/kg, route oral; details: Sprague-Dawley, plasma

RNA-directed RNA polymerase, sequence (O39930 whole entry): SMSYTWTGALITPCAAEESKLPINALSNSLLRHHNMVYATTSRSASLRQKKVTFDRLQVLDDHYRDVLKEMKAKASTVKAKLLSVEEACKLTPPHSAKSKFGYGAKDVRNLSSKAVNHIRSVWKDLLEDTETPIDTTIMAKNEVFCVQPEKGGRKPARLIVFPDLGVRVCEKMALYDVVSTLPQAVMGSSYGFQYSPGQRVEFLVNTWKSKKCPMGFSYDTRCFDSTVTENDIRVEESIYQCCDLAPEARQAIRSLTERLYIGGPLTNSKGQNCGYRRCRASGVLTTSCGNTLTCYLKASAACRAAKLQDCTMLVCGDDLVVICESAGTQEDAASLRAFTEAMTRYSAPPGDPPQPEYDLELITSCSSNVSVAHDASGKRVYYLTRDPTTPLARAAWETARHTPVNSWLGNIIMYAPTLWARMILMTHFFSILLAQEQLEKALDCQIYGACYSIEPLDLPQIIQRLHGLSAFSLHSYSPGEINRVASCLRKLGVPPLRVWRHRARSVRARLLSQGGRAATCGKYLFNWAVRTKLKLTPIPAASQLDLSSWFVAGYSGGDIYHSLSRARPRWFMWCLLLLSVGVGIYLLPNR
Genome polyprotein, sequence (Q96662 3189-3907 limits assumed): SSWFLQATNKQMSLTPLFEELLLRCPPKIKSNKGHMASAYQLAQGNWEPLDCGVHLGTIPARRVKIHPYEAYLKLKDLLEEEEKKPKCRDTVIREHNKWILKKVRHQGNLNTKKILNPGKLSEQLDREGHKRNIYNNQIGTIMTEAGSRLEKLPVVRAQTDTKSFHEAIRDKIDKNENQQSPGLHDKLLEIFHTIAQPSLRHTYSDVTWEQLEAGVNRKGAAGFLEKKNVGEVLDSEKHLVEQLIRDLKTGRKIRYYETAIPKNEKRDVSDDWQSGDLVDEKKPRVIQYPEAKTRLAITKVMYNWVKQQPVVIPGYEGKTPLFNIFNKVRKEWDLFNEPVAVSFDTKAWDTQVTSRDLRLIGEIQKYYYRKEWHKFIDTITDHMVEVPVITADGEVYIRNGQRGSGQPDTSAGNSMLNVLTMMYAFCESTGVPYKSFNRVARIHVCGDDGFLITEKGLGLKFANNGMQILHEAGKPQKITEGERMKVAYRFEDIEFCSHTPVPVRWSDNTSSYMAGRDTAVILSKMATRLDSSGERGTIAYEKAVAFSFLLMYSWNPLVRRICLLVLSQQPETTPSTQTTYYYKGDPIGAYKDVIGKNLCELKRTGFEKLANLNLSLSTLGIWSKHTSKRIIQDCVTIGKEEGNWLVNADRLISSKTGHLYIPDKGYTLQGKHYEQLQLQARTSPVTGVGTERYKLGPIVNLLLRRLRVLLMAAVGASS

Row | SMILES | IC50 (ECV-304) | IC50 (HFF) | IC50 [1] | other results
1 | CC(/C=C1\SC(=S)N(NS(=O)(=O)c2ccccc2)C1=O)=C\c1ccccc1 | > 50 µM | > 100 µM | 0.2 µM | 
2 | O=C1NC(=S)S/C1=C\c1ccc(Cl)cc1 |  |  | > 30 µM | 
3 | CN1C(=O)/C(=C/c2ccc([N+](=O)[O-])cc2)SC1=S |  |  | 30 µM | 
4 | O=C1/C(=C/c2ccc(Cl)cc2)SC(=S)N1NS(=O)(=O)c1ccccc1 |  |  | 1.5 µM | IC50 (Genome polyprotein): > 30 µM; IC50 [2]: > 30 µM
5 | Cc1ccc(/C=C2\SC(=S)N(NS(=O)(=O)c3ccccc3)C2=O)cc1 | > 50 µM | > 100 µM | 10 µM | 
6 | O=C1/C(=C/c2ccc(Br)cc2)SC(=S)N1NS(=O)(=O)c1ccccc1 | > 50 µM | > 100 µM | 0.7 µM | 
7 | O=C1/C(=C/c2ccc(F)c(F)c2F)SC(=S)N1NS(=O)(=O)c1ccccc1 | > 50 µM | > 100 µM | 1.9 µM | 
8 | CN(C)c1ccc(/C=C2\SC(=S)N(N)C2=O)cc1 |  |  | > 30 µM | 
9 | O=C1/C(=C/c2ccc3ccccc3c2)SC(=S)N1NS(=O)(=O)c1ccccc1 | > 50 µM | > 100 µM | 3 µM | 
10 | N#Cc1ccc(/C=C2\SC(=S)N(N)C2=O)cc1 |  |  | 7 µM | 
11 | O=C1/C(=C/c2ccc(Cl)c(Cl)c2)SC(=S)N1NS(=O)(=O)c1ccccc1 | > 50 µM | > 100 µM | 0.2 µM | Activity [3]: inactive; Activity [4]: inactive; Activity (Homo sapiens): inactive; Activity (Tubulin (Homo sapiens)): inactive; Activity [5]: inactive; clearance [6]: 0.125 mL/min/kg; Vd [7]: 0.09 L/kg; half-life [8]: 9.2 h; Cmax [9]: 3740 ng/mL; Tmax [10]: 3.3 h; AUC(0-t) at 8 h [11]: 25500 ng·h/mL
12 | COc1ccc(/C=C2\SC(=S)N(N)C2=O)cc1 |  |  | > 30 µM | 
13 | CCN1C(=O)/C(=C/c2ccc(Cl)cc2)SC1=S |  |  | > 30 µM | 
14 | O=C1/C(=C/c2ccc(-c3cc(C(F)(F)F)ccc3Cl)o2)SC(=S)N1NS(=O)(=O)c1ccccc1 |  |  | 0.1 µM | 
15 | O=C1/C(=C/c2ccc(Cl)c(Cl)c2)SC(=S)N1NS(=O)(=O)c1cccs1 | > 50 µM | > 100 µM | 0.2 µM | clearance [12]: 2.83 mL/min/kg; Vd [13]: 0.7 L/kg; half-life [14]: 3.3 h; Cmax [15]: 3970 ng/mL; Tmax [16]: 1.7 h; AUC(0-t) at 8 h [17]: 25600 ng·h/mL
16 | O=C1C(Cc2ccc(Cl)c(Cl)c2)SC(=S)N1NS(=O)(=O)c1ccccc1 (stereo unspecified) |  |  | 11 µM | 
17 | O=S(=O)(NN1C(=S)SC(Cc2ccc(Cl)c(Cl)c2)C1O)c1ccccc1 (stereo unspecified) |  |  | 27 µM | 
18 | O=C1/C(=C/c2ccccc2)SC(=S)N1NS(=O)(=O)c1ccccc1 | > 50 µM | > 100 µM | 30 µM | 
19 | O=C1/C(=C/c2ccc([N+](=O)[O-])cc2)SC(=S)N1NS(=O)(=O)c1ccccc1 | > 50 µM | > 100 µM | 2 µM | 
20 | O=C1/C(=C/c2cc(F)c(F)cc2F)SC(=S)N1NS(=O)(=O)c1ccccc1 | > 50 µM | > 100 µM | 0.2 µM | 
21 | CN1C(=O)/C(=C/c2ccc(Cl)cc2)SC1=S |  |  | > 30 µM | 
22 | CS(=O)(=O)NN1C(=O)/C(=C/c2ccc(Cl)c(Cl)c2)SC1=S |  |  | 2 µM | 
23 | O=C1/C(=C/c2ccc3c(c2)OCO3)SC(=S)N1NS(=O)(=O)c1ccccc1 | > 50 µM | > 100 µM | 15 µM | 
24 | O=C1/C(=C/c2ccc(F)cc2F)SC(=S)N1NS(=O)(=O)c1ccccc1 | > 50 µM | > 100 µM | 3 µM | 

Row | SMILES | IC50 (ECV-304) | IC50 (HFF) | IC50 [1] | other results
25 | Cc1cccc(/C=C2\SC(=S)N(NS(=O)(=O)c3ccccc3)C2=O)c1 | > 50 µM | > 100 µM | 25 µM | 
26 | NN1C(=O)/C(=C/c2ccc(Cl)cc2)SC1=S |  |  | 16 µM | 
27 | O=C1/C(=C/c2ccc(Cl)cc2)SC(=S)N1Cc1ccccc1 |  |  | > 30 µM | 
28 | O=C1NC(=S)S/C1=C\c1ccc([N+](=O)[O-])cc1 |  |  | 22 µM | 
29 | NN1C(=O)/C(=C/c2ccccc2)SC1=S |  |  | > 30 µM | 
30 | O=C1/C(=C/c2cc(F)ccc2F)SC(=S)N1NS(=O)(=O)c1ccccc1 | > 50 µM | > 100 µM | 1.7 µM | 
31 | CCCCS(=O)(=O)NN1C(=O)/C(=C/c2ccc(Cl)c(Cl)c2)SC1=S |  |  | 0.7 µM | 
32 | O=C(NN1C(=O)/C(=C/c2ccc(Cl)cc2)SC1=S)c1ccccc1 |  |  | > 30 µM | 
33 | O=C1/C(=C/c2ccc(C(F)(F)F)cc2)SC(=S)N1NS(=O)(=O)c1ccccc1 | > 50 µM | > 100 µM | 1 µM | 
34 | N#Cc1ccc(/C=C2\SC(=S)N(NS(=O)(=O)c3ccccc3)C2=O)cc1 | > 50 µM | > 100 µM | 0.9 µM | 
35 | NN1C(=O)/C(=C/c2ccc([N+](=O)[O-])cc2)SC1=S |  |  | 1 µM | 
36 | O=C1/C(=C/c2ccccc2F)SC(=S)N1NS(=O)(=O)c1ccccc1 | > 50 µM | > 100 µM | 6.5 µM | 
37 | C/C(=C1/SC(=S)N(NS(=O)(=O)c2ccccc2)C1=O)c1ccc(Cl)c(Cl)c1 |  |  | 0.6 µM | 
38 | O=C1/C(=C/c2ccc(Br)c(Br)c2)SC(=S)N1NS(=O)(=O)c1ccccc1 | > 50 µM | > 100 µM | 0.2 µM | 
39 | Cc1ccc(/C=C2\SC(=S)N(N)C2=O)cc1 |  |  | > 30 µM | 
40 | O=C1/C(=C/c2ccc(Cl)c(F)c2)SC(=S)N1NS(=O)(=O)c1ccccc1 | > 50 µM | > 100 µM | 1 µM | 
41 | NN1C(=O)/C(=C/c2ccc(F)cc2)SC1=S |  |  | 7 µM | 
42 | O=C1/C(=C/c2ccc(F)cc2)SC(=S)N1NS(=O)(=O)c1ccccc1 | > 50 µM | > 100 µM | 1 µM | 
43 | Cc1ccc(/C=C2\SC(=S)N(NS(=O)(=O)c3ccccc3)C2=O)cc1C | > 50 µM | > 100 µM | 8 µM | 
44 | O=C1/C(=C/c2cccnc2)SC(=S)N1NS(=O)(=O)c1ccccc1 | > 50 µM | > 100 µM | 15 µM | 
45 | O=C1/C(=C/c2cc(F)c(F)c(F)c2)SC(=S)N1NS(=O)(=O)c1ccccc1 | > 50 µM | > 100 µM | 1 µM | 
46 | COc1cccc(/C=C2\SC(=S)N(NS(=O)(=O)c3ccccc3)C2=O)c1 | > 50 µM | > 100 µM | 5 µM | 
47 | COc1ccc(/C=C2\SC(=S)N(NS(=O)(=O)c3ccccc3)C2=O)cc1 | > 50 µM | > 100 µM | 5 µM | 
